Results from ChEMBL document CHEMBL4138175, “Newly designed organotin(IV) carboxylates with peptide linkage: Synthesis, structural elucidation, physicochemical characterizations and pharmacological investigations” (Eur J Med Chem, 2018).
Calls of active or inactive are those of the source. The rule behind the calls is not given here.

Experiments:
Leishmania major [1] = experiment: Antileishmanial activity against Leishmania major promastigotes at 1 uM after 72 hrs by MTT assay relative to control; type: functional
Pseudomonas aeruginosa [2] = experiment: Antibacterial activity against Pseudomonas aeruginosa assessed as zone of inhibition by measuring activity index after 24 to 48 hrs by well diffusion method relative to tetracycline; type: functional, organism-based
Escherichia coli [3] = experiment: Antibacterial activity against Escherichia coli assessed as zone of inhibition after 24 to 48 hrs by well diffusion method; type: functional
Pseudomonas aeruginosa [4] = experiment: Antibacterial activity against Pseudomonas aeruginosa assessed as zone of inhibition after 24 to 48 hrs by well diffusion method; type: functional
Staphylococcus aureus [5] = experiment: Antibacterial activity against Staphylococcus aureus assessed as zone of inhibition after 24 to 48 hrs by well diffusion method; type: functional
Escherichia coli [6] = experiment: Antibacterial activity against Escherichia coli assessed as zone of inhibition by measuring activity index after 24 to 48 hrs by well diffusion method relative to tetracycline; type: functional
[7] = tested on: Staphylococcus epidermidis; experiment: Antibacterial activity against Staphylococcus epidermidis assessed as zone of inhibition by measuring activity index after 24 to 48 hrs by well diffusion method relative to amoxicillin; type: functional, organism-based
Streptococcus pyogenes [8] = experiment: Antibacterial activity against Streptococcus pyogenes assessed as zone of inhibition after 24 to 48 hrs by well diffusion method; type: functional
Serratia marcescens [9] = experiment: Antibacterial activity against Serratia marcescens assessed as zone of inhibition after 24 to 48 hrs by well diffusion method; type: functional
NCI-H157 [10] = experiment: Cytotoxicity against human NCI-H157 cells at 100 uM after 48 hrs by sulforhodamine B assay; type: functional
DNA [11] = experiment: Binding affinity to single-stranded DNA (unknown origin) after 10 mins by UV-visible spectrometric method; type: nucleic-acid assay
Klebsiella pneumoniae [12] = experiment: Antibacterial activity against Klebsiella pneumoniae assessed as zone of inhibition by measuring activity index after 24 to 48 hrs by well diffusion method relative to ampicillin; type: functional, organism-based
Serratia marcescens [13] = experiment: Antibacterial activity against Serratia marcescens assessed as zone of inhibition by measuring activity index after 24 to 48 hrs by well diffusion method relative to penicillin G; type: functional
NCI-H157 [14] = experiment: Cytotoxicity against human NCI-H157 cells after 48 hrs by sulforhodamine B assay; type: functional, cell-based
Serratia marcescens [15] = experiment: Antibacterial activity against Serratia marcescens assessed as zone of inhibition by measuring activity index after 24 to 48 hrs by well diffusion method relative to ampicillin; type: functional
Klebsiella pneumoniae [16] = experiment: Antibacterial activity against Klebsiella pneumoniae assessed as zone of inhibition by measuring activity index after 24 to 48 hrs by well diffusion method relative to amoxicillin; type: functional, organism-based
DNA [17] = experiment: Binding affinity to single-stranded DNA (unknown origin) assessed as red shift up to 72 uM after 10 mins by UV-visible spectrometric method; type: nucleic-acid assay
Leishmania major [18] = experiment: Antileishmanial activity against Leishmania major promastigotes at 0.1 uM after 72 hrs by MTT assay relative to control; type: functional
DNA [19] = experiment: Binding affinity to single-stranded DNA (unknown origin) assessed as DNA intercalation by measuring increase in relative viscosity of DNA-compound complex by viscometry; type: nucleic-acid assay
Pseudomonas aeruginosa [20] = experiment: Antibacterial activity against Pseudomonas aeruginosa assessed as zone of inhibition by measuring activity index after 24 to 48 hrs by well diffusion method relative to amoxicillin; type: functional, organism-based
[21] = tested on: Staphylococcus epidermidis; experiment: Antibacterial activity against Staphylococcus epidermidis assessed as zone of inhibition after 24 to 48 hrs by well diffusion method; type: functional
Pseudomonas aeruginosa [22] = experiment: Antibacterial activity against Pseudomonas aeruginosa assessed as zone of inhibition by measuring activity index after 24 to 48 hrs by well diffusion method relative to penicillin G; type: functional, organism-based
Klebsiella pneumoniae [23] = experiment: Antibacterial activity against Klebsiella pneumoniae assessed as zone of inhibition by measuring activity index after 24 to 48 hrs by well diffusion method relative to tetracycline; type: functional, organism-based
NCI-H157 [24] = experiment: Cytotoxicity against human NCI-H157 cells at 10 uM after 48 hrs by sulforhodamine B assay; type: functional
NCI-H157 [25] = experiment: Cytotoxicity against human NCI-H157 cells at 0.1 uM after 48 hrs by sulforhodamine B assay; type: functional
Klebsiella pneumoniae [26] = experiment: Antibacterial activity against Klebsiella pneumoniae assessed as zone of inhibition after 24 to 48 hrs by well diffusion method; type: functional
NCI-H157 [27] = experiment: Cytotoxicity against human NCI-H157 cells at 1 uM after 48 hrs by sulforhodamine B assay; type: functional
Leishmania major [28] = experiment: Antileishmanial activity against Leishmania major promastigotes at 100 uM after 72 hrs by MTT assay relative to control; type: functional
Leishmania major [29] = experiment: Antileishmanial activity against Leishmania major promastigotes at 10 uM after 72 hrs by MTT assay relative to control; type: functional
Serratia marcescens [30] = experiment: Antibacterial activity against Serratia marcescens assessed as zone of inhibition by measuring activity index after 24 to 48 hrs by well diffusion method relative to amoxicillin; type: functional
[31] = tested on: Staphylococcus epidermidis; experiment: Antibacterial activity against Staphylococcus epidermidis assessed as zone of inhibition by measuring activity index after 24 to 48 hrs by well diffusion method relative to tetracycline; type: functional, organism-based
Staphylococcus aureus [32] = experiment: Antibacterial activity against Staphylococcus aureus assessed as zone of inhibition by measuring activity index after 24 to 48 hrs by well diffusion method relative to penicillin G; type: functional, organism-based
Staphylococcus aureus [33] = experiment: Antibacterial activity against Staphylococcus aureus assessed as zone of inhibition by measuring activity index after 24 to 48 hrs by well diffusion method relative to amoxicillin; type: functional, organism-based
Staphylococcus aureus [34] = experiment: Antibacterial activity against Staphylococcus aureus assessed as zone of inhibition by measuring activity index after 24 to 48 hrs by well diffusion method relative to ampicillin; type: functional, organism-based
Staphylococcus aureus [35] = experiment: Antibacterial activity against Staphylococcus aureus assessed as zone of inhibition by measuring activity index after 24 to 48 hrs by well diffusion method relative to tetracycline; type: functional, organism-based
Serratia marcescens [36] = experiment: Antibacterial activity against Serratia marcescens assessed as zone of inhibition by measuring activity index after 24 to 48 hrs by well diffusion method relative to tetracycline; type: functional, organism-based
Escherichia coli [37] = experiment: Antibacterial activity against Escherichia coli assessed as zone of inhibition by measuring activity index after 24 to 48 hrs by well diffusion method relative to penicillin G; type: functional, organism-based
Pseudomonas aeruginosa [38] = experiment: Antibacterial activity against Pseudomonas aeruginosa assessed as zone of inhibition by measuring activity index after 24 to 48 hrs by well diffusion method relative to ampicillin; type: functional, organism-based
Streptococcus pyogenes [39] = experiment: Antibacterial activity against Streptococcus pyogenes assessed as zone of inhibition by measuring activity index after 24 to 48 hrs by well diffusion method relative to amoxicillin; type: functional, organism-based
Streptococcus pyogenes [40] = experiment: Antibacterial activity against Streptococcus pyogenes assessed as zone of inhibition by measuring activity index after 24 to 48 hrs by well diffusion method relative to ampicillin; type: functional, organism-based
Escherichia coli [41] = experiment: Antibacterial activity against Escherichia coli assessed as zone of inhibition by measuring activity index after 24 to 48 hrs by well diffusion method relative to amoxicillin; type: functional, organism-based
Streptococcus pyogenes [42] = experiment: Antibacterial activity against Streptococcus pyogenes assessed as zone of inhibition by measuring activity index after 24 to 48 hrs by well diffusion method relative to tetracycline; type: functional, organism-based
Escherichia coli [43] = experiment: Antibacterial activity against Escherichia coli assessed as zone of inhibition by measuring activity index after 24 to 48 hrs by well diffusion method relative to ampicillin; type: functional, organism-based
Streptococcus pyogenes [44] = experiment: Antibacterial activity against Streptococcus pyogenes assessed as zone of inhibition by measuring activity index after 24 to 48 hrs by well diffusion method relative to penicillin G; type: functional, organism-based

Substance	Activity (Leishmania major [1]) [%]	inhibition zone (IZ) (Escherichia coli [3])	inhibition zone (IZ) (Pseudomonas aeruginosa [4])	inhibition zone (IZ) (Staphylococcus aureus [5])	Activity index [7]	inhibition zone (IZ) (Streptococcus pyogenes [8])	inhibition zone (IZ) (Serratia marcescens [9])	Activity (NCI-H157 [10]) [%]	Activity index (Klebsiella pneumoniae [12])	Activity (NCI-H157 [14])	Activity index (Klebsiella pneumoniae [16])	Activity (Leishmania major [18]) [%]	inhibition zone (IZ) [21] [mm]	Activity index (Klebsiella pneumoniae [23])	Activity (NCI-H157 [24]) [%]	Activity (NCI-H157 [25]) [%]	inhibition zone (IZ) (Klebsiella pneumoniae [26]) [mm]	Activity (NCI-H157 [27]) [%]	Activity (Leishmania major [28]) [%]	Activity (Leishmania major [29]) [%]	also measured
Trimethylstannyl 2-(4-methoxy-2-nitrophenylcarbamoyl)benzoate	62.9	16.7 mm	15.7 mm	4.66 mm	5.17	7.33 mm	13.3 mm	66.4	3.44	Dose-dependent effect	3.44	58.8	10.3	1.44	62.3	54.4	20.2	58.2	67.8	66.5	Activity index (Pseudomonas aeruginosa [2]): 2.61; Activity index (Escherichia coli [6]): 8.33; K (DNA [11]): 4.2 ×10³ /M; Activity index (Serratia marcescens [13]): 1.67; Activity index (Serratia marcescens [15]): 1.67; Activity (DNA [17]): < 3 nm; Activity (DNA [19]): Active; Activity index (Pseudomonas aeruginosa [20]): 2.61; Activity index (Pseudomonas aeruginosa [22]): 2.61; Activity index (Serratia marcescens [30]): 2.22; Activity index [31]: 1.03
Tricyclohexylstannyl 2-(4-methoxy-2-nitrophenylcarbamoyl)benzoate	58.8	inactive	18.7 mm	inactive	6.17	16.7 mm	inactive	59.3	3.09	Dose-dependent effect	3.09	55.2	12.3	1.32	54	43.6	18.5	50.6	67.8	63.5	Activity index (Pseudomonas aeruginosa [2]): 3.11; Activity_index (Staphylococcus aureus [32]): inactive; Activity_index (Staphylococcus aureus [33]): inactive; Activity_index (Staphylococcus aureus [34]): inactive; Activity_index (Staphylococcus aureus [35]): inactive; Activity_index (Serratia marcescens [36]): inactive; Activity index (Pseudomonas aeruginosa [20]): 3.11; Activity index (Pseudomonas aeruginosa [22]): 3.11; Activity index [31]: 1.23
Dimethylstannanediyl bis 2-(4-methoxy-2-nitrophenylcarbamoyl)benzoate	51.6	1.77 mm	inactive	13.7 mm	6.65	inactive	inactive	55.6	4.2	Dose-dependent effect	4.2	48.4	13.3	1.8	53.4	48.9	25.2	51.2	62.3	54.7	Activity_index (Escherichia coli [37]): inactive; Activity index (Escherichia coli [6]): 0.88; Activity_index (Pseudomonas aeruginosa [38]): inactive; Activity_index (Streptococcus pyogenes [39]): inactive; Activity_index (Serratia marcescens [36]): inactive; Activity_index (Streptococcus pyogenes [40]): inactive; Activity_index (Escherichia coli [41]): inactive; Activity_index (Streptococcus pyogenes [42]): inactive; Activity_index (Escherichia coli [43]): inactive; Activity_index (Streptococcus pyogenes [44]): inactive; Activity index [31]: 1.33
